# From patent publication US20130102638A1, “METHODS AND COMPOSITIONS FOR CONTROLLING ALGAE” (priority 2002, published 2013)
# Assays:
# Oscillatoria = test: Picolinafen on axenic Oscillatoria culture, total chlorophyll; assay type: cell-based; conditions: 10-day exposure
# Description: (§1) A stock solution of 50 micrograms picolinafen/L was prepared from technical grade picolinafen. Axenic algal cultures of Scenedesmus and Ankistrodesmus (green phytoplankton), Pithophora and Oedogonium (filamentous green), and Anabaena, Oscillatoria, and Pseudanabaena (blue-green) were grown. Stock material from these cultures was placed in 250 ml of CLII media (a known, defined algal growth medium). Following the addition of the algae, picolinafen was added to the beakers to achieve concentrations of 0, 1.5, 5, 10, 25, and 50 ppb. Each treatment was replicated three times and beakers were placed in Percival growth chambers that were set at 25° C., with a light intensity of 300 micromoles/square meter/second and a 16:8 photoperiod. The algae were given a 10 to 14 day incubation period, and depending on the growth form of the algae, either total chlorophyll, cell counts, or algal biomass were quantified as end points.
# [1] = system: Pseudanabaena (blue-green); test: Picolinafen on axenic Pseudanabaena culture, cell counts; assay type: cell-based; conditions: 10-day exposure
# Description: as §1
# hydrilla = test: Impact on growth of hydrilla; assay type: in vivo; conditions: at levels showing significant control of the algal species
# Ankistrodesmus = test: Picolinafen on axenic Ankistrodesmus culture, cell counts; assay type: cell-based; conditions: 10-day exposure
# Description: as §1
# Spirogyra = test: Picolinafen on Spirogyra culture, biomass; assay type: cell-based; conditions: 10-day exposure
# Description: [The source words this procedure for another organism and reports this organism under the same test.] as §1
# algal species = test: Algal culture exposure, overall observations; assay type: cell-based
# Description: as §1
# Anabaena = test: Picolinafen on axenic Anabaena culture, total chlorophyll; assay type: cell-based; conditions: for Total Chl: 10-day exposure
# Description: as §1
# [2] = system: Pithophora (filamentous green); test: Picolinafen on axenic Pithophora culture, biomass; assay type: cell-based; conditions: 10-day exposure
# Description: as §1
# eurasian watermilfoil = test: Impact on growth of eurasian watermilfoil; assay type: in vivo; conditions: at levels showing significant control of the algal species
# Scenedesmus = test: Picolinafen on axenic Scenedesmus culture, total chlorophyll; assay type: cell-based; conditions: 10-day exposure
# Description: as §1
# Oedogonium = test: Picolinafen on axenic Oedogonium culture, total chlorophyll and biomass; assay type: cell-based; conditions: 10-day exposure
# Description: as §1
compound,measurement,setting,value
"O=C(Nc1ccc(F)cc1)c1cccc(Oc2cccc(C(F)(F)F)c2)n1 [Picolinafen, N-(4-fluorophenyl)-6-[3-(trifluoromethyl)phenoxy]-2-pyridinecarboxamide]",Total Chl,Oscillatoria; 1.5 ppb,14 μg chl.
same,Total Chl,Oscillatoria; 5 ppb,10 μg chl.
same,Total Chl,Oscillatoria; 10 ppb,21 μg chl.
same,Total Chl,Oscillatoria; 25 ppb,17 μg chl.
same,Total Chl,Oscillatoria; 50 ppb,13 μg chl.
same,Cell Count,[1]; 1.5 ppb,"2,344 cells/ml"
same,Cell Count,[1]; 5 ppb,89 cells/ml
same,Cell Count,[1]; 10 ppb,52 cells/ml
same,Cell Count,[1]; 25 ppb,98 cells/ml
same,Cell Count,[1]; 50 ppb,77 cells/ml
same,impact upon the growth of hydrilla,hydrilla,substantially no impact
same,Cell Count,Ankistrodesmus; 1.5 ppb,"3,025,323 cells/ml"
same,Cell Count,Ankistrodesmus; 5 ppb,"141,246 cells/ml"
same,Cell Count,Ankistrodesmus; 10 ppb,"96,622 cells/ml"
same,Cell Count,Ankistrodesmus; 25 ppb,"87,012 cells/ml"
same,Cell Count,Ankistrodesmus; 50 ppb,"81,706 cells/ml"
same,Biomass,Spirogyra; 1.5 ppb,16.2 mg dry wt./beaker
same,Biomass,Spirogyra; 5 ppb,6.9 mg dry wt./beaker
same,Biomass,Spirogyra; 10 ppb,3.0 mg dry wt./beaker
same,Biomass,Spirogyra; 25 ppb,3.8 mg dry wt./beaker
same,Biomass,Spirogyra; 50 ppb,3.3 mg dry wt./beaker
same,sensitivity of most algal species,algal species; concentrations of 10 ppb and less,highly sensitive
same,time to bleaching (visual observations),algal species; some of the test species,≤ 12 h
same,algacidal versus herbicidal activity in the aquatic environment,algal species; two aquatic macrophyte species compared with various algal species,greater algacidal than herbicidal activity
same,tolerance of Anabaena compared to other algal species,Anabaena,highest level of tolerance
same,Total Chl,Anabaena; 1.5 ppb,880 μg chl.
same,Total Chl,Anabaena; 5 ppb,906 μg chl.
same,Total Chl,Anabaena; 10 ppb,685 μg chl.
same,Total Chl,Anabaena; 25 ppb,526 μg chl.
same,Total Chl,Anabaena; 50 ppb,101 μg chl.
same,Biomass,[2]; 1.5 ppb,26.2 mg dry wt./beaker
same,Biomass,[2]; 5 ppb,19.1 mg dry wt./beaker
same,Biomass,[2]; 10 ppb,20.4 mg dry wt./beaker
same,Biomass,[2]; 25 ppb,14.8 mg dry wt./beaker
same,Biomass,[2]; 50 ppb,11.4 mg dry wt./beaker
same,impact upon the growth of eurasian watermilfoil,eurasian watermilfoil,substantially no impact
same,Total Chl,Scenedesmus; 1.5 ppb,2427 (119) μg chl/g
same,Total Chl,Scenedesmus; 5 ppb,87 (16) μg chl/g
same,Total Chl,Scenedesmus; 10 ppb,15 (6) μg chl/g
same,Total Chl,Scenedesmus; 25 ppb,17 (8) μg chl/g
same,Total Chl,Scenedesmus; 50 ppb,12 (6) μg chl/g
same,Biomass,Oedogonium; 1.5 ppb,0.064 mg dry wt./beaker
same,Total Chl,Oedogonium; 1.5 ppb,1522 μg chl.
same,Biomass,Oedogonium; 5 ppb,0.027 mg dry wt./beaker
same,Total Chl,Oedogonium; 5 ppb,1057 μg chl.
same,Biomass,Oedogonium; 10 ppb,0.019 mg dry wt./beaker
same,Total Chl,Oedogonium; 10 ppb,342 μg chl.
same,Biomass,Oedogonium; 25 ppb,0.011 mg dry wt./beaker
same,Total Chl,Oedogonium; 25 ppb,247 μg chl.
same,Biomass,Oedogonium; 50 ppb,0.005 mg dry wt./beaker
same,Total Chl,Oedogonium; 50 ppb,144 μg chl.
